In article PMC10951960, “CGP7930 - An allosteric modulator of GABABRs, GABAARs and inwardly-rectifying potassium channels” (Neuropharmacology, 2023):

Biological target: T1, Kir3.1/3.2 channels (GIRK) (Homo sapiens, UniProt P48051+P48549)
T1 construct: expressed in transfected cells
T1 sequence (P48549 1-501): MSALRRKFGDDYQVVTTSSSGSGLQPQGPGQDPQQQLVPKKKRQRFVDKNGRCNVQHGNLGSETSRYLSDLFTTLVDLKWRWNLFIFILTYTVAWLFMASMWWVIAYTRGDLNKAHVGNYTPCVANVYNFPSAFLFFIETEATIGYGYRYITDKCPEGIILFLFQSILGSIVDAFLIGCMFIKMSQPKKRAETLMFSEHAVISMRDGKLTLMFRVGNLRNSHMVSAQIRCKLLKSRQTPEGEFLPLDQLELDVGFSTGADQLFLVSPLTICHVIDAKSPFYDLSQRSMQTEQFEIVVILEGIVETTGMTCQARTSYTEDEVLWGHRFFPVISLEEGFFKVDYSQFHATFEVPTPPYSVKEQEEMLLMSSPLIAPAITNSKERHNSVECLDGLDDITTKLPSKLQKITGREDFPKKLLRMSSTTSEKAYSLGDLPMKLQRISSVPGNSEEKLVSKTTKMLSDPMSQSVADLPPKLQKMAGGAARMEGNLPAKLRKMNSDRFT
T1 sequence (P48051 1-423): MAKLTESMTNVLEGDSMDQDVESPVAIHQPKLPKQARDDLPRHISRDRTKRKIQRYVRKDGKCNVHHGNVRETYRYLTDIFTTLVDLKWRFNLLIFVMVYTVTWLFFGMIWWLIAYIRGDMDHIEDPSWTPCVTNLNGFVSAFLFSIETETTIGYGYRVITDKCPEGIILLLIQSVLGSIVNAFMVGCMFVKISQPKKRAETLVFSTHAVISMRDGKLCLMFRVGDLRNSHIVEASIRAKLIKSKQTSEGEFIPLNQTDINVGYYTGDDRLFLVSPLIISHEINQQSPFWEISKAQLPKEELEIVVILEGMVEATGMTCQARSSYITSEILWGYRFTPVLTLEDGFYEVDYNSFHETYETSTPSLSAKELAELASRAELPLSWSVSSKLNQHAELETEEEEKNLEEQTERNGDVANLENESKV
Assay: block of basally-active K+ currents in GIRK cells not expressing GABABRs, high K+ Krebs
Type: cell-based
Description: HEK-293T cells were maintained in Dulbecco's modified Eagle's medium containing 10% (v/v) fetal calf serum (FCS), 100 U/ml penicillin-G, 100 μg/ml streptomycin in 95% air/5% CO2 at 37 °C. All cell culture reagents were acquired from ThermoFisher unless otherwise stated. Cells were plated on 22 mm glass coverslips (VWR, UK), coated with poly-L-lysine (Sigma) and transfected using a calcium phosphate method with cDNAs for eGFP, α, β, γ or δ, in a 1:1:1:1 ratio ([Hannan et al., 2020]) applied 1–2 h after cell plating. HEK-293 cells stably expressing Kir3.1/3.2 channels ([Leaney et al., 2000]) were grown in a selection media containing G418 (0.5 mg/ml) and Zeocin (0.4 mg/ml) and passaged, and plated, as for the HEK-293T cells above. These cells are referred to as GIRK cells throughout the text and were transiently transfected with cDNAs for eGFP, GABAB R1a and R2 in a 1:1:5 ratio applied 1–2 h after cell plating.
GABA-activated currents were recorded 24 h after transfection of HEK-293T or GIRK cells. Spontaneous inhibitory postsynaptic currents (sIPSCs) were recorded from cultured hippocampal neurons at 12–17 days in vitro (DIV). Cells were superfused with a saline solution containing (mM): 140 NaCl, 4.7 KCl, 2.52 CaCl2, 1.2 MgCl2, 11 glucose, and 5 HEPES; pH 7.4. sIPSCs from hippocampal culture neurons were recorded in the presence of 2 mM kynurenic acid to block excitatory neurotransmission. […] GABABR-activated K^+ currents in cultured neurons were recorded in the additional presence of 2 mM kynurenic acid and 20 μM picrotoxin.
Borosilicate glass electrodes (3–5 MΩ) were filled with a K^+-based internal solution for recording GIRK currents containing (mM): 120 KCl, 2 MgCl2, 11 EGTA, 30 KOH, 10 HEPES, 1 CaCl2, 1 GTP, 2 ATP, 14 creatine phosphate, pH 7.0. GABAAR currents and sIPSCs were recorded with a Cs-based internal solution containing (mM): 120 CsCl, 1 MgCl2, 11 EGTA, 30 KOH, 10 HEPES, 1 CaCl2, and 2 K2ATP; pH 7.2. […]

CC(C)(CO)Cc1cc(C(C)(C)C)c(O)c(C(C)(C)C)c1 [CGP7930, 3-(3′,5′-Di-tert-butyl-4′-hydroxy) phenyl-2,2-dimethylpropanol]
effect on GIRK-mediated inwardly-rectifying currents (I–V, −20 to −120 mV) (10 or 100 μM): inhibition | threshold for whole-cell outward currents (GIRK cells without GABABRs, −60 mV, high K+): 0.3 µM | effect on additional outward rectification (depolarising steps) (GIRK cells, I–V): inhibited
